Source: patent US20240252677A1, “ONE-COMPONENT DELIVERY SYSTEM FOR NUCLEIC ACIDS” (The Trustees of the University of Pennsylvania, priority 2021, published 2024)
Marks after values point to notes of the source that are not given here. One block for each compound: values may come before it.

Columns and labels:
[1] = Dimensions (size, PDI) of DNPs co-assembled from IAJDs and Luc-mRNA by DLS; format: physicochemical
Description: Dynamic Light Scattering (DLS) for the DNPs was performed in buffer with a Malvern Instruments particle sizer (Zetasizer Nano S, Malvern Instruments, UK) equipped with 4 mW He—Ne laser 633 nm and avalanche photodiode positioned at […] to the beam and temperature-controlled cuvette holder. Instrument parameters were determined automatically along with measurement times.
Formulation of DNPs Containing mRNA-Luc: IAJDs were dissolved in ethanol with various initial concentrations (5-160 mg/mL). Nucleoside-modified mRNA encoding firefly luciferase (mRNA-Luc) was dissolved in water with various initial concentrations (1-4 mg/mL). 12.5 μL of mRNA solution was placed into a clean RNAs free eppendorf (1.5 mL) and mixed with 463 μL of citrate buffer (10 mM, pH 3.0)/acetate buffer (10 mM). For encapsulation of mRNA into IAJDs, 25 μL of IAJDs of the ethanol stock solution was rapidly injected into mRNA solution in citrate or acetate buffer followed by vortex for 5 seconds.
(§1) Dynamic Light Scattering (DLS) for the sizes and polydispersities of DNPs was performed on a Malvern Instruments particle sizer (Zetasizer Nano S, Malvern Instruments, UK) equipped with 4 mW He—Ne laser 633 nm and avalanche photodiode positioned at 1750 to the beam and temperature-controlled cuvette holder. Instrument parameters were determined automatically along with measurement times. Sample solution (0.4 mL) was placed in a semi-micro cuvette (1.6 mL, polystyrene, 10×10×45 mm, manufactured by Greiner Bio-One) and the measurements were performed at 23° C.
Formulation of DNPs obtained by co-assembly of IAJDs and Luc-mRNA was performed as follows. IAJDs were dissolved in ethanol with an initial concentration of 80 mg/mL. Nucleoside-modified mRNA encoding firefly luciferase (Luc-mRNA) was dissolved in UltraPure DNase/RNase-free distilled water with an initial concentration of 4.0 mg/mL. 12.5 μL of Luc-mRNA solution was placed into a clean RNAs free eppendorf (1.5 mL) and 463 μL acetate buffer (10 mM, pH 4.0) was added. Then, 25 μL of IAJD in the ethanol stock solution was rapidly injected into the Luc-mRNA solution in acetate buffer followed by vortex for 5 seconds.
as §1, with “dimensions (sizes” for “sizes”, “polydispersities)” for “polydispersities”, “175°” for “1750”, “set up” for “determined”, “(c.a. 0.4” for “(0.4”, “mm,” for “mm, manufactured by”
Formulation of DNPs Co-assembled from IAJDs and Luc-mRNA: nucleoside-modified mRNA encoding firefly luciferase (Luc-mRNA) was dissolved in UltraPure DNase/RNase-free distilled water with an initial concentration of 4.0 mg/mL. IAJD molecules were dissolved in ethanol with an initial concentration of 80 mg/mL. 12.5 μL of Luc-mRNA solution was taken and placed into a clean RNAs free eppendorf (1.5 mL). Then 463 μL of acetate buffer (10 mM, pH 4.0) was added. Afterwards, 25 μL of IAJD in the ethanol stock solution was taken and rapidly injected into the above Luc-mRNA solution in acetate buffer followed by vortex for 5 seconds.

BALB/c mice = experiment: In vivo mRNA delivery in mice with DNPs, whole-body bioluminescence imaging (IVIS); conditions: for Organs with luminescence / Total flux (p/s): mice; for Total flux (p/s): IVIS imaging 4 h after Luc-mRNA-IAJD injection; for In vivo activity (total flux, p/s): Table 19, nonsymmetric IAJDs
Description: (§2) The exposure time was 1 min.
Luminescence characterization for in vivo transfection experiments employed bioluminescence imaging with an IVIS Spectrum imaging system (PerkinElmer, Waltham, MA). Mice were anesthetized with 3% of isoflurane (Piramal Healthcare Limited) and intraperitoneally (i.p.) administered with D-luciferin (Regis Technologies) at a dose of 150 mg/kg of body weight. Ten minutes post administration of D-luciferin, mice were placed on the imaging platform while being maintained on isoflurane via a nose cone and imaged using an exposure time of 60 seconds. […] To quantify luminescent flux, an oval ROI was placed over each organ of interest and analyzed.
(§3) Tissue luminescence signal was measured on the IVIS imaging system using an exposure time of 60 seconds using medium binning (binning=8) to ensure that the signal obtained was within operative detection range. […] Bioluminescence imaging was performed as described above.
Luminescence Characterization for In Vivo Transfection Experiments: bioluminescence imaging was performed with an IVIS Spectrum imaging system (PerkinElmer, Waltham, MA).

spleen = experiment: In vivo mRNA delivery, IVIS imaging of organs: spleen; set-up: species or system mice; key to Organs with luminescence: spleen: strong: Strong meant the luminescence intensity in that organ was relatively high, compared to other organs; weak: Weak meant the luminescence intensity in that organ was relatively low, compared to other organs; conditions: for Organs with luminescence: spleen (weak/strong): Table 14, imaging 5 h after injection; for Organs with luminescence: spleen: Table 17, mice, IVIS, 4-6 h after injection, intensity relative to other organs
Description: as §2, §3
(§4) Tissue luminescence signal was measured on the IVIS imaging system using a certain exposure time (60, 30 or 15 seconds) and medium binning (binning=8) to ensure that the signal obtained was within operative detection range.

lung = experiment: In vivo mRNA delivery, IVIS imaging of organs: lung; set-up: species or system mice; key to Organs with luminescence: lung: strong: Strong meant the luminescence intensity in that organ was relatively high, compared to other organs; weak: Weak meant the luminescence intensity in that organ was relatively low, compared to other organs; conditions: for Organs with luminescence: lung: Table 17, mice, IVIS, 4-6 h after injection, intensity relative to other organs
Description: as §2, §3, §4

[2] = Stability of DNPs by DLS after storage at 5° C.; format: physicochemical; set-up: key to Original size distribution type (DLS curve) / Size distribution type (DLS curve): U: DLS curve showed unimodal size distribution; B: DLS curve showed bimodal size distribution; M: DLS curve showed multimodal size distribution; conditions: for pH Sample: DNPs: IAJD 4.0 mg/mL + Luc-mRNA 0.1 mg/mL, injection in acetate buffer pH 4.00; for PDI / Size (d, nm) / Original size distribution type (DLS curve): IAJD 4.0 mg/mL + Luc-mRNA 0.1 mg/mL; for PDI / Size (d, nm): acetate buffer; for Original size distribution type (DLS curve): before storage, acetate buffer pH 4.00
Description: The stability of the DNPs as assayed by DLS. All the samples are prepared in acetate buffer. The stabilities of the constructs were ranked: Excellent (in bold)—the original sizes and distribution remains almost the same after storage; Good—the original relatively big sizes became smaller or broad size distribution became narrower; Not stable—the original relatively big sizes or broad size distribution remained almost the similar level, or the original relatively small sizes became bigger or narrow size distribution became broader.

[3] = Acetate buffer 10 mM pH 4.0, CIAJD 4 mg/mL, CLuc-mRNA 0.05 mg/mL
[4] = Acetate buffer 10 mM pH 5.2, CIAJD 4 mg/mL, CLuc-mRNA 0.10 mg/mL
[5] = Citrate buffer 10 mM pH 3.0, CIAJD 4 mg/mL, CLuc-mRNA 0.05 mg/mL
[6] = DNP for in vivo, CIAJD 4.0 mg/mL, CLuc-mRNA 0.1 mg/mL, acetate buffer pH 5.2
[7] = Table 12, DNPs, IAJD 4 mg/mL + Luc-mRNA 0.10 mg/mL, acetate buffer 10 mM pH 4.0
[8] = Table 13, DNPs, IAJD 4 mg/mL + Luc-mRNA 0.10 mg/mL, acetate buffer pH 4.0
[9] = Table 14, DNPs, IAJD 4 mg/mL + Luc-mRNA 0.10 mg/mL, acetate buffer pH 4.0
[10] = Table 13, IVIS imaging 5 h after injection
[11] = Table 16, DNPs from IAJD 4 mg/mL and Luc-mRNA 0.10 mg/mL by injection in acetate buffer (10 mM, pH 4.0)
[12] = Table 17, DNPs used in vivo, IAJD 4 mg/mL, Luc-mRNA 0.10 mg/mL, acetate pH 4.0

Compound: CCCCCCCCCCCCOc1ccc(COC(=O)CCCN2CCN(C)CC2)cc1OCCCCCCCCCCCC [IAJD 78, 3,4-Bis(dodecyloxy)benzyl 4-(4-methylpiperazin-1-yl)butanoate]
Organs with luminescence: spleen (weak/strong) (spleen): spleen (weak)
PDI [1, 7]: 1.000
Size (d, nm) [1, 7]: 629 nm
PDI [1, 8]: 1.000
Size (d, nm) [1, 8]: 629 nm
PDI [1, 9]: 1.000
Size (d, nm) [1, 9]: 629 nm
Organs with luminescence (BALB/c mice; [10]): Lung, spleen
Organs with luminescence: lung (weak/strong) (lung; Table 14, imaging 5 h after injection): Lung (strong),

Compound: CCCCCCCCCCCCOCC(COCCCCCCCCCCCC)(COCCCCCCCCCCCC)COC(=O)CCCN1CCN(C)CC1 [IAJD 82, 3-(Dodecyloxy)-2,2-bis((dodecyloxy)methyl)propyl 4-(4-methylpiperazin-1-yl)butanoate]
Organs with luminescence: spleen (weak/strong) (spleen): Spleen (strong)
PDI [1, 7]: 0.144
Size (d, nm) [1, 7]: 162 nm
PDI [1, 8]: 0.144
Size (d, nm) [1, 8]: 162 nm
PDI [1, 9]: 0.144
Size (d, nm) [1, 9]: 162 nm
Organs with luminescence (BALB/c mice; [10]): spleen

Compound: CCCCCCCCCCCOc1cc(COC(=O)CCCN2CCN(CCO)CC2)cc(OCCCCCCCC)c1 [IAJD 113, 3-(Octyloxy)-5-(undecyloxy)benzyl 4-(4-(2-hydroxyethyl)piperazin-1-yl)butanoate]
pH Sample [2]: 4.48
Size distribution type (DLS curve) ([2]; after 70 days at 5° C.): (B)
PDI ([2]; after 70 days at 5° C.): 0.365
Size (d, nm) ([2]; after 70 days at 5° C.): 184 nm
Original size distribution type (DLS curve) [2]: (B)^b
Organs with luminescence: spleen (spleen): Spleen (strong)
PDI [1, 11]: 0.511
Size (d, nm) [1, 11]: 181 nm
PDI [1, 12]: 0.511
Size (d, nm) [1, 12]: 181 nm
In vivo activity (total flux, p/s) (BALB/c mice): 1.70 × 10^7 p/s

Second part, led by results:

PDI [1, 3]: 0.493
Size (d, nm) [1, 3]: 106 nm
PDI [1, 4]: 0.311
Size (d, nm) [1, 4]: 199 nm
PDI [1, 5]: 0.283
Size (d, nm) [1, 5]: 192 nm
PDI [1, 6]: 0.311
Size (d, nm) [1, 6]: 199 nm
Compound: 3,5-Bis(dodecyloxy)benzyl 3-(4-methylpiperazin-1-yl)propanoate [IAJD 84]
Organs with luminescence (BALB/c mice; 4 h from injection, CIAJD 4.0 mg/mL, CLuc-mRNA 0.1 mg/mL, acetate buffer pH 5.2): Lung, spleen

PDI [1, 7]: 0.249
Size (d, nm) [1, 7]: 241 nm
PDI [1, 8]: 0.249
Size (d, nm) [1, 8]: 241 nm
PDI [1, 9]: 0.249
Size (d, nm) [1, 9]: 241 nm
Compound: CCCCCCCCCCCCOc1cc(COC(=O)CCCN2CCCCC2)cc(OCCCCCCCCCCCC)c1 [IAJD 65, 3,5-Bis(dodecyloxy)benzyl 4-(piperidin-1-yl)butanoate]
Total flux (p/s) (BALB/c mice; Table 13): 0 p/s
Total flux (p/s) (BALB/c mice; Table 14): 0 p/s

pH Sample [2]: 4.40
Size distribution type (DLS curve) ([2]; after 70 days at 5° C.): (B)
PDI ([2]; after 70 days at 5° C.): 0.289
Size (d, nm) ([2]; after 70 days at 5° C.): 177 nm
Original size distribution type (DLS curve) [2]: (B)
PDI [1, 11]: 0.474
Size (d, nm) [1, 11]: 212 nm
PDI [1, 12]: 0.474
Size (d, nm) [1, 12]: 212 nm
Compound: CCCCCCCCCCCCCCCCOc1cc(COC(=O)CCCN2CCN(CCO)CC2)cc(OCCCCCCCCCCC)c1 [IAJD 120, 3-(Hexadecyloxy)-5-(undecyloxy)benzyl 4-(4-(2-hydroxyethyl)piperazin-1-yl)butanoate]
Organs with luminescence: spleen (spleen): Spleen (strong)
In vivo activity (total flux, p/s) (BALB/c mice): 2.48 × 10^7 p/s

pH Sample [2]: 4.93
Size distribution type (DLS curve) ([2]; after 19 days at 5° C.): (U)
PDI ([2]; after 19 days at 5° C.): 0.259
Size (d, nm) ([2]; after 19 days at 5° C.): 86 nm
Original size distribution type (DLS curve) [2]: (U)
PDI [1, 11]: 0.279
Size (d, nm) [1, 11]: 83 nm
PDI [1, 12]: 0.279
Size (d, nm) [1, 12]: 83 nm
Compound: CCCCCCCCCCCOc1cc(COC(=O)c2cc(OCCOCCOCCCC(=O)CCCN3CCCCC3)c(OCCOCCOCCOCc3ccccc3)c(OCCOCCOCCOC(=O)CCCN3CCCCC3)c2)cc(OCC(CC)CCCC)c1 (stereo not drawn) [IAJD 155]
Organs with luminescence: spleen (spleen): spleen (weak)
Organs with luminescence: lung (lung): Lung (strong),

pH Sample [2]: 4.72
Size distribution type (DLS curve) ([2]; after 11 days at 5° C.): (U)
PDI ([2]; after 11 days at 5° C.): 0.220
Size (d, nm) ([2]; after 11 days at 5° C.): 93 nm
Original size distribution type (DLS curve) [2]: (U)
PDI [1, 11]: 0.218
Size (d, nm) [1, 11]: 91 nm
PDI [1, 12]: 0.218
Size (d, nm) [1, 12]: 91 nm
Compound: CCCCCCCCCCCCCCCCCOc1cc(CNC(=O)c2cc(OCCOCCOCCOC(=O)CCCN3CCCCC3)c(OCCCOCOCCOCc3ccccc3)c(OCCOCCOCCOC(=O)CCCN3CCCCC3)c2)cc(OCCCCCCCCCCCCCCCCC)c1 [IAJD 159]
increase of activity, amide vs ester interconnecting group (BALB/c mice; transition from 158(11/17) (ester) to 159(11/17) (amide)): about 6 fold
Organs with luminescence: lung (lung): Lung (strong)
